Measurements taken from patent publication US8507440B2, “Protein kinase C peptides for use in withdrawal” (The Board of Trustees of the Leland Stanford Junior …, priority 2002, dated 2013).
Ends that are not written are not given here.

Assays:
[1] = tested on: postnatal day 7 rats; assay: naloxone-precipitated morphine withdrawal, mechanical threshold and thermal paw withdrawal latency in vivo; parameters: species or system rat; settings: 10 μM in 5 μl intrathecally prior to morphine 1 mg/kg s.c.; naloxone 0.25 mg/kg 30 min after morphine
Method: In vivo studies on opiate withdrawal allodynia and hyperalgesia were conducted using postnatal day 7 rats. As described in Example 2, postnatal day 7 rats were given morphine subcutaneously followed 30 minutes later by naloxone or saline. Mechanical threshold using von Frey filaments to produce the flexion withdrawal response of the hind paw and thermal stimulation to measure the paw withdrawal latency were measured as described in Example 2.
FIG. 5A illustrates a treatment protocol where rat pups were given a PKC antagonist intrathecally (e.g., directly into the cerebrospinal fluid surrounding the spinal cord) prior to subcutaneous morphine delivery. Thirty minutes after morphine delivery, naloxone was administered, followed by mechanical allodynia and thermal hyperalgesia testing (as described in Example 2).
Postnatal day 7 Sprague-Dawley rats (Charles River Laboratories) of both sexes were used. For all behavioural experiments rats were maintained at nesting temperature with overhead heatlamps.
To measure mechanical thresholds, rats were placed on an elevated wire mesh (2 mm openings). Von Frey hairs (Stoelting Co., WoodDale, Ill., USA) were used to elicit a cutaneous flexion withdrawal response as described by Fitzgerald et al. (Fitzgerald M., et al., PAIN […] INFANTS, CHILDREN AND ADOLESCENTS; Schetchter and Yaster, Eds., pp 11-32, Williams and Williams (Baltimore, Md.) (1993). Von Frey hairs of increasing intensity were applied three times to the plantar surface of the left hind paw until a paw withdrawal was elicited. The lowest intensity Von Frey hair required to produce a withdrawal reflex was recorded as the response threshold to a low-intensity mechanical stimulus.
Thermal paw withdrawal latencies were measured using the Ugo Basile Plantar Testing apparatus (Stoelting Co., WoodDale, Ill., USA). Briefly, postnatal day 7 rats were placed under inverted Plexiglas enclosures and the plantar surface of the left hindpaw was heated from below with the IR intensity of the lamp set at 30. Two baseline thermal response latency measures were collected prior to morphine administration with a cut-off of 20 seconds enlisted to prevent tissue damage.
Postnatal day 7 rats were administered 1 mg/kg morphine sulfate (Sigma) subcutaneously in 50 μl saline. Mechanical thresholds were measured 15 minutes later to establish analgesia. Rats were returned to their dam. At 30 or 120 minutes post morphine, rats were administered 0.25 mg/kg naloxone (Sigma) subcutaneously in 50 μl saline. Mechanical thresholds and thermal paw withdrawal latencies were measured in 10 minute intervals. Tat conjugated peptide inhibitors specific to the ε (εV1-2; SEQ ID NO:1, 10 μM) and γ ([…]; SEQ ID NO:2, 10 μM) isoforms of PKC, Tat carrier (10 μM), or saline were administered in 5 μl volumes intrathecally via direct lumbar puncture using a sterile 29 gauge 3/10 cc insulin syringe in rats lightly anesthetized with halothane. To allow for complete recovery from anesthetic, animals were administered peptides or control solutions 30 minutes prior to naloxone.
An unpaired T-test was used to determine the significance of post-naloxone measures from baseline measures. Significance between treatment groups for PKC inhibitor studies both in vivo and in vitro was determined by one way analysis of variance (ANOVA) followed by a post-hoc Bonferroni analysis. P-values<0.05 were considered significant. All statistical analysis was done with GraphPad Prism version 3.02.

[2] = tested on: N-methyl-D-aspartate (NMDA) receptor currents; assay: alcohol withdrawal hyperresponsiveness of NMDA-evoked currents in lumbar spinal cord slice motor neurons; assay type: cell-based, rat
Text: Spinal cords were taken from young rats, and slices of these cords were made and placed in artificial cerebrospinal fluid for patch clamp electrophysiological analysis, to characterize the ability of γPKC peptides to mediate alcohol withdrawal hyperresponsiveness of N-methyl-D-aspartate (NMDA) receptor currents. FIG. 7A is a schematic diagram of the technique, where a lumbar spinal cord slice 10 is shown. The placement of a recording electrode 12 and a pipette 14 for application of NMDA relative to a motor neuron 16 is illustrated.
Sprague-Dawley rats at postnatal day 7-10 were anesthetized with halothane, decapitated, and the spinal cords were quickly removed. Slices […] thick were sectioned from the lumbar region. Whole cell voltage clamp recordings were made from visually-identified motor neurons using infrared video microscopy, a 60× water immersion lens, and a MultiClamp 700A patch clamp amplifier. Cells were held at a holding potential of −60 mV in artificial cerebrospinal fluid (ACSF) containing bicuculline methiodide ([…]), strychnine ([…]), and tetrodotoxin ([…]). Postsynaptic currents were evoked by direct pressure application of 2 mM N-methyl-D-aspartate (NMDA) from a pipette positioned near the recorded cell at 1-2 min intervals, as illustrated in FIG. 7A. The area of evoked currents during and following 100 mM ethanol (EtOH) application was measured and normalized to the average baseline current area during the 10 minutes preceding EtOH application. Data are expressed as mean +/−SEM: Statistical significance was determined by one-way ANOVA followed by Dunn's or Tukey's multiple comparison test with significance set at p<0.05.

RLVLAS (also: Tat peptide conjugate; listed as Homo sapiens) [γV5-3]
block of naloxone-precipitated morphine withdrawal allodynia and hyperalgesia [1]: had a smaller blocking effect
block of ethanol withdrawal hyperresponsiveness of NMDA-evoked currents ([2]; 2 nM peptide, ethanol 100 mM 15 minutes then wash): did not completely block withdrawal hyperresponsiveness
block of ethanol withdrawal hyperresponsiveness of NMDA-evoked currents ([2]; 5-10 nM peptide, ethanol 100 mM then wash): effectively blocked ethanol withdrawal hyperresponsiveness
